In experiment [1] the test system is mRPE65 / IMH activity in RPE membranes. Kind of experiment: Effect of 11-cis-retinol mediated depalmitoylation of mRPE65 on generation of 11-cis-retinol in RPE membranes. It counts as biochemical, bovine. To be noted: RPE membranes pretreated with 10 μM, then UV and vitamin A. How it is done: Effect of 11-cis-retinol mediated depalmitoylation of mRPE65 on the generation of 11-cis-retinol: To 1 mL of buffered suspension of RPE membranes (100 mM Tris pH 8.0, 80 μg of protein) was added 10 μM of 11-cis-retinol and incubated at room temp. for 45 min. A control reaction mixture without 11-cis-retinol was also incubated at room temperature for 45 min. At the end of the 45 min incubation, the reaction mixtures were exposed to UV light (354 nm) for 10 min to destroy the 11-cis-retinoids. All-trains-retinol [11-12-^3H2] (0.1 μM) was then added to the reaction mixtures (100 mM Tris pH 8.0, 80 μg of RPE protein 5% BSA and 0.1 μM all-trans-retinol [11-12-^3H2], and incubated at 37° C. 100 μL aliquot of the reactions were quenched after 0, 5, 10, 15, 20, 30, 45, 60, 90, 120 and 150 min by the addition of 500 μL methanol after which 100 μL of H2O was added, and 500 μl hexane (containing butylated hydroxy toluene at 1 mg/mL) was added to effect extraction of the retinoids. The retinoids were analyzed as previously described (Winston and Rando 1998). The amount of 11-cis-retinol formed was used as a measurement of IMH activity. All experiments were performed in triplicate and the average values of these measurements were used for analysis. […]

In experiment [2] the target is T1, tLRAT (Homo sapiens, UniProt O95237).
T1 construct: This form of LRAT has the two N and C-terminal transmembrane domains of LRAT truncated; made in house
T1 sequence (O95237 31-196 limits assumed): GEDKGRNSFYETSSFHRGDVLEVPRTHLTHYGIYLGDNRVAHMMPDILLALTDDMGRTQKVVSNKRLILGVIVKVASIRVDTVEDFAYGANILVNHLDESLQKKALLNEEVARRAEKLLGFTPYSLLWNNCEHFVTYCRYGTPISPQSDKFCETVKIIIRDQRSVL
The experiment in a line: Isomeric preference of the mRPE65/tLRAT mediated esterification of retinols. It counts as biochemical. The conditions noted are these: compared to vitamin A; 0.02 μM mRPE65, 5 μM tLRAT. On the procedure: Isomeric preference of the mRPE65/tLRAT mediated esterification of retinols: The effect of mRPE65 on the processing of 11-cis- and all-trans-retinols was determined by monitoring the formation of tLRAT catalyzed retinyl esters from added all-trans-retinol [11,12-^3H2], 11-cis-retinol [15-^3H] and mRPE65. The reaction mixture (volume 0.1 mL) contains 100 mM Tris (pH 8.4), 5 μM of tLRAT 0.3% CHAPS, 1 mM dithiothreitol and 0.2 μM of all-trans-retinol [11,12-^3H2] or 11-cis-retinol [15-^3H] and mRPE65 ([…] 200 μM/0.4% DPPC/BSA was incubated for 10 min at room temperature. After 10 min the reaction was quenched with 500 μL methanol, 100 μL of water and 500 μL of hexane. The amount of retinyl palmitate formed, as determined by normal phase-HPLC, was used as a measure of activity. Each experiment was done in triplicate, and the data points used are an average of these three points. The standard error was presented as error bars.
11-cis-retinol, the direct product of IMH action, is also esterified (FIG. 12A). […] (2) all-trans-retinol (2 μM) and mRPE65 (0.02 μM). (3) 11-cis-retinol (2 μM) and DPPC/BSA (250 μM/0.4%). (4) all-trans-retinol (2 μM) and DPPC/BSA (250 μM/0.4%). All reaction mixtures contain 100 mM Tris pH 8.4, 1 mM dithiothreitol, 1 mM EDTA and 5 μM tLRAT.

The target in the next experiment is T2, RPE65 (Bos taurus, UniProt Q28175).
T2 construct: Frozen bovine eyecups devoid of retinas were purchased from W. L. Lawson Co; tissue W. L. Lawson Co; host or cells: bovine eyecups (retinal pigment epithelium)
T2 sequence (Q28175 whole entry): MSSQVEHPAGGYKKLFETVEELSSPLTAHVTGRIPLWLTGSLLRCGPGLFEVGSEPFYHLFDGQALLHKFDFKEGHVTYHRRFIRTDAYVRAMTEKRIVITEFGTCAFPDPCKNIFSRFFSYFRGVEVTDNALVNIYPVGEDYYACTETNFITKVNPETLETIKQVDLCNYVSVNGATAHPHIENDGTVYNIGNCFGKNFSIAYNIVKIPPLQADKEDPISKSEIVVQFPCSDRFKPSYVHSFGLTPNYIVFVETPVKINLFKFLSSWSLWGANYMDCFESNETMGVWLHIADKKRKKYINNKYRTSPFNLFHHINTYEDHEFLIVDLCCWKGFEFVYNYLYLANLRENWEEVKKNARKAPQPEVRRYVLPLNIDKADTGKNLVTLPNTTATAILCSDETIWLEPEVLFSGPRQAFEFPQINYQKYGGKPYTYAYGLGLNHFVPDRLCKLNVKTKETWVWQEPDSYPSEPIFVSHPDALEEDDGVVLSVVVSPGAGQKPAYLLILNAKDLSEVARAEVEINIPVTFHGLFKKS
The experiment in a line: Competitive binding with 3H-all-trans-retinyl palmitate to RPE65 (buffer exchange). Details: species or system bovine. To be noted: 6 μM retinoic acid, 0.5 μM RPE65, 0.65 μM 3H-all-trans-retinyl palmitate. On the procedure: Competitive binding of retinoic acid (all-trans and 13-cis) and all-trans-retinyl palmitate to RPE65: Buffer exchange experiments were performed to investigate the abilities of the retinoic acids (all-trans and 13-cis) to displace all-trans-retinyl palmitate binding from RPE65. To RPE65 (0.5 μM) (PBS, 1% CHAPS, pH 7.4), was added 6 μM of retinoic acid (all-trans and 13-cis) and incubated at 4° C. for 30 min. A control sample of RPE65 was incubated minus retinoic acids at 4° C. for 30 min. At the end of this incubation, the samples were incubated for 30 min with ^3H-all-trans-retinyl palmitate (0.65 ∥M, 20.31. Ci/mmol). At the end of this incubation period the buffer (PBS-1% CHAPS) was exchanged 10^4 fold with a Centricon 30K MWCO filter. The sample retained and the buffer flow through were counted on a liquid scintillation counter, to measure the amount of ^3H-all-trans-retinyl palmitate retained.
Competitive binding of retinoic acid (all-trans and 13-cis) and all-trans-retinyl palmitate to RPE65: Buffer exchange experiments were performed to investigate the abilities of the retinoic acids (all-trans and 13-cis) to displace all-trans-retinyl palmitate binding from RPE65. […] The sample retained and the buffer flow through were counted on a liquid scintillation counter, to measure the amount of ^3H-all-trans-retinyl palmitate retained. […]

Experiment [3] relates to 11-cis-retinol biosynthesis (IMH activity) in retinal pigment epithelial membrane system. The experiment in a line: Effect on 11-cis-retinol biosynthesis (IMH activity) in RPE membranes. It counts as biochemical, bovine. To be noted: membranes pre-incubated with vitamin A before inhibitor; 60 μM; data not shown. How it is done: A control reaction mixture without any inhibitor was also incubated at room temperature for 15 min. At the end of the min incubation, all-trans-retinol [11-12-^3H2] (0.2 μM) was added to the reaction mixtures (100 mM Tris pH 8.0, […] of RPE protein, 0.2% BSA 100 μM of DPPC, 1 mM of DTT and 0.2 μM all-trans-retinol [11-12-^3H2]) and incubated at room temperature for 30 min. At the end of this 30 minutes of incubation, an aliquot of the reactions were quenched to verify the equal addition of all-trans-retinol [11,12-^3H2] and the effect of these inhibitors on LRAT. After this the control reaction mixture was incubated with atRA (60 & 6 μM), 13cRA (60 & 6 μM) or 4-HPR (60 & 6 μM) for 15 min. Now all the reaction mixtures were incubated with 30 μM of apo-rCRALBP (100 mM Tris pH 8.0, 7.7 μg of RPE protein, 0.2% BSA 100 μM of DPPC, 1 mM of DTT 30 μM apo-rCRALBP and 0.2 μM all-trans-retinol [11-12-^3H2]) at 37° C. for 30 minutes. At the end of this incubation period the 200 μL reaction mixture was quenched by the addition of 750 μL ice cold methanol after which 100 μL of 1M sodium chloride solution was added, and 500 μl hexane (containing butylated hydroxy toluene at 1 mg/mL) was added to effect extraction of the retinoids. The retinoids were analyzed as previously described (27). The amount of 11-cis-retinol formed was used as a measurement of IMH activity. All experiments were performed in triplicate and the average values of these measurements were used for analysis.
A control reaction mixture without any inhibitor was also incubated at room temperature for 15 min. At the end of the min incubation, all-trans-retinol [11-12-^3H2] (0.2 μM) was added to the reaction mixtures (100 mM Tris pH 8.0, 76.7 μg of RPE protein, 0.2% BSA 100 μM of DPPC, 1 mM of DTT and 0.2 μM all-trans-retinol [11-12-^3H2]) and incubated at room temperature for 30 min. […] The retinoids were analyzed as previously described (27). […]

In experiment [4] the target is T1, tLRAT. The conditions noted are these: comparison value; no observable turnover under the same conditions; read-out: KM as acyl donor in the LRAT reaction; cited from earlier work.

Molecules are shown by their SMILES.

Turning to `CC1=C(/C=C/C(C)=C/C=C\C(C)=C\CO)C(C)(C)CCC1` [11-cis-retinol], the “effect of pretreatment on 11-cis-retinol synthesis” value in experiment [1] is “distinct lag period before product synthesis occurs”. In addition, the “substrate preference in tLRAT/mRPE65 mediated esterification (palmitoylation)” value on tLRAT [2] was “superior substrate”. `CC1=C(/C=C/C(C)=C/C=C/C(C)=C/C(=O)O)C(C)(C)CCC1` [all-trans-retinoic acid]: on RPE65, the “competition with 3H-all-trans-retinyl palmitate binding to RPE65” value is on record as “competes with the binding”. Besides, the “inhibition of 11-cis-retinol formation” value in experiment [3] is reported as “not susceptible to inhibition”. For `CCCCCCCCCCCCCCCC(=O)OC[C@H](COP(=O)([O-])OCC[N+](C)(C)C)OC(=O)CCCCCCCCCCCCCCC` [DPPC, dipalamitoyl phosphatidylcholine], at tLRAT [4], the Km is 1.4 µM.

Broadly, the Km is the substrate concentration at which the rate is half of its maximum.

The values above are taken from US20080176952A1, “Management of Ophthalmologic Disorders, Including Macular Degeneration” (priority 2004, published 2008).
